Source: ChEMBL document CHEMBL3627692, “Inhibition of mammalian carbonic anhydrase isoforms I-XIV with a series of phenolic acid esters” (Bioorg Med Chem, 2015)

Columns and labels:
[1] = target: Carbonic anhydrase 1 (Homo sapiens, UniProt P00915); experiment: Inhibition of human carbonic anhydrase 1 preincubated for 15 mins by stopped-flow CO2 hydration assay
[2] = target: Carbonic anhydrase 2 (Homo sapiens, UniProt P00918); experiment: Inhibition of human carbonic anhydrase 2 preincubated for 15 mins by stopped-flow CO2 hydration assay
[3] = target: Carbonic anhydrase 3 (Homo sapiens, UniProt P07451); experiment: Inhibition of human carbonic anhydrase 3 preincubated for 15 mins by stopped-flow CO2 hydration assay
Sequence of Carbonic anhydrase 3 (P07451 whole entry): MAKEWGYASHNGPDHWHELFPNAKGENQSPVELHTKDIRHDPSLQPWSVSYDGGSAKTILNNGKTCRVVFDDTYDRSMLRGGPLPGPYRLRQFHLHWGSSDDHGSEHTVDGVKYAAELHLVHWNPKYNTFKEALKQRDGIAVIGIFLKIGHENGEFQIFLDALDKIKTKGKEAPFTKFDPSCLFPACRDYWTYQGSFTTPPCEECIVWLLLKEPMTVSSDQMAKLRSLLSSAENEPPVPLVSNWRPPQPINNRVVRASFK

[4] = target: Carbonic anhydrase 4 (Homo sapiens, UniProt P22748); experiment: Inhibition of human carbonic anhydrase 4 preincubated for 15 mins by stopped-flow CO2 hydration assay
Sequence of Carbonic anhydrase 4 (P22748 whole entry): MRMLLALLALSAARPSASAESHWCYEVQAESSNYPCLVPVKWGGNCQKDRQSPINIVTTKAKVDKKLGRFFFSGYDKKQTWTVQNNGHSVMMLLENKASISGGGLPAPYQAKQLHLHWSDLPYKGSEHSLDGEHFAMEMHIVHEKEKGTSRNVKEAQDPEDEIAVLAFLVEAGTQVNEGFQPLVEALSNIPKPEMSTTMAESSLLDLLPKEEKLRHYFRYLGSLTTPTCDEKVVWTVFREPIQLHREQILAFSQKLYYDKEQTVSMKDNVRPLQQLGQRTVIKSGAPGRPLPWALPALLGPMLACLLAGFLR

[5] = target: Carbonic anhydrase 5A, mitochondrial (Homo sapiens, UniProt P35218); experiment: Inhibition of human carbonic anhydrase 5A preincubated for 15 mins by stopped-flow CO2 hydration assay
Sequence of Carbonic anhydrase 5A, mitochondrial (P35218 whole entry): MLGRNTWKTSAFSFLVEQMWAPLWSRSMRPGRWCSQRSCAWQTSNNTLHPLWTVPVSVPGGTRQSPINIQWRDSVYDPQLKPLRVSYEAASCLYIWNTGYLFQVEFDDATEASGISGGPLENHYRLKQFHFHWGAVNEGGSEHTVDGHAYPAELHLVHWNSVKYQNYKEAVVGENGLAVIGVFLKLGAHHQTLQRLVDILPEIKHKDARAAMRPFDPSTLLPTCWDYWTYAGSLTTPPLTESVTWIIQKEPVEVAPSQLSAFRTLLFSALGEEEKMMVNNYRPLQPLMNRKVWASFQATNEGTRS

[6] = target: Carbonic anhydrase 5B, mitochondrial (Homo sapiens, UniProt Q9Y2D0); experiment: Inhibition of human carbonic anhydrase 5B preincubated for 15 mins by stopped-flow CO2 hydration assay
Sequence of Carbonic anhydrase 5B, mitochondrial (Q9Y2D0 whole entry): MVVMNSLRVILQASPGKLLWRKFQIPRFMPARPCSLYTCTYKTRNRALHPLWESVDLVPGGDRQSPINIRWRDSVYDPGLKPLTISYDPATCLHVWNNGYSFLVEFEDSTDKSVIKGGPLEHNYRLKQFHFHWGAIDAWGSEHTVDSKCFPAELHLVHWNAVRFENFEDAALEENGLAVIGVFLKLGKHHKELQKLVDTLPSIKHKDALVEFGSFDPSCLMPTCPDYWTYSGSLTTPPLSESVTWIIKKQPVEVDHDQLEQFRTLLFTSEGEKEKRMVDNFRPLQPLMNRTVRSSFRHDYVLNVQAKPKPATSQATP

[7] = target: Carbonic anhydrase 6 (Homo sapiens, UniProt P23280); experiment: Inhibition of human carbonic anhydrase 6 preincubated for 15 mins by stopped-flow CO2 hydration assay
Sequence of Carbonic anhydrase 6 (P23280 whole entry): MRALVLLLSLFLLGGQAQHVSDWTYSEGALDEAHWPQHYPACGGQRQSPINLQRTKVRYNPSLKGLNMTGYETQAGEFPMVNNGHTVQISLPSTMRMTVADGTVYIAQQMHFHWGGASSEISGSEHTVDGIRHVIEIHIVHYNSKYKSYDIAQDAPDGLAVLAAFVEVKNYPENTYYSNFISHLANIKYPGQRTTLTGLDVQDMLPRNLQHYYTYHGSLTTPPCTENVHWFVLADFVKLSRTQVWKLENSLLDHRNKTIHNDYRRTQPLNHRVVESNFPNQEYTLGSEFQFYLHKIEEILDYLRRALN

[8] = target: Carbonic anhydrase 7 (Homo sapiens, UniProt P43166); experiment: Inhibition of human carbonic anhydrase 7 preincubated for 15 mins by stopped-flow CO2 hydration assay
Sequence of Carbonic anhydrase 7 (P43166 whole entry, the tested form may be a part): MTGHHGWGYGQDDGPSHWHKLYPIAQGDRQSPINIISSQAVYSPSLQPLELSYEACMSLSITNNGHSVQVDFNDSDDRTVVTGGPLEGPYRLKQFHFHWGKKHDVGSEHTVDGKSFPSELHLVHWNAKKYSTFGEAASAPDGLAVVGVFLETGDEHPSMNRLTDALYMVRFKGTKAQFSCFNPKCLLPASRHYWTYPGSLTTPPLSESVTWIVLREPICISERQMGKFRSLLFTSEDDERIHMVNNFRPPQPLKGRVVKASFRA

[9] = target: Carbonic anhydrase 9 (Homo sapiens, UniProt Q16790); experiment: Inhibition of human catalytic domain of carbonic anhydrase 9 preincubated for 15 mins by stopped-flow CO2 hydration assay
[10] = target: Carbonic anhydrase 12 (Homo sapiens, UniProt O43570); experiment: Inhibition of human catalytic domain of carbonic anhydrase 12 preincubated for 15 mins by stopped-flow CO2 hydration assay
Sequence of Carbonic anhydrase 12 (O43570 whole entry, the tested form may be a part): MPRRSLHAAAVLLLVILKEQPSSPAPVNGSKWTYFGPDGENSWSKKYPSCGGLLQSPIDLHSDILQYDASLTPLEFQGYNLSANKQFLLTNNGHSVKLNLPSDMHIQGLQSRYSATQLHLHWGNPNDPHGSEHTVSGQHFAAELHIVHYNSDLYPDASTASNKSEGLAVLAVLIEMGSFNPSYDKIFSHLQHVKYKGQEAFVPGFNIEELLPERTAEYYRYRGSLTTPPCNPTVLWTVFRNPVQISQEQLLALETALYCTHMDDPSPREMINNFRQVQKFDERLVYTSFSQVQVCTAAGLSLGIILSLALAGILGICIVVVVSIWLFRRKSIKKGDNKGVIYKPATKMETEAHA

[11] = target: Carbonic anhydrase 13 (Mus musculus, UniProt Q9D6N1); experiment: Inhibition of mouse carbonic anhydrase 13 preincubated for 15 mins by stopped-flow CO2 hydration assay
Sequence of Carbonic anhydrase 13 (Q9D6N1 whole entry): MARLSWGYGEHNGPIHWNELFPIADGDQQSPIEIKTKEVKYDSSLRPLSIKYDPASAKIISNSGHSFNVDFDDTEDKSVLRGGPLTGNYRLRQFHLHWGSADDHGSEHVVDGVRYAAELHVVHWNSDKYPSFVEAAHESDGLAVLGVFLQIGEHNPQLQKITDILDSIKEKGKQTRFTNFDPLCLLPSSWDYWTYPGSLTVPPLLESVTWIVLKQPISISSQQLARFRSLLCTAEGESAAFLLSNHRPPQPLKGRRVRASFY

[12] = target: Carbonic anhydrase 14 (Homo sapiens, UniProt Q9ULX7); experiment: Inhibition of human carbonic anhydrase 14 preincubated for 15 mins by stopped-flow CO2 hydration assay
Sequence of Carbonic anhydrase 14 (Q9ULX7 whole entry): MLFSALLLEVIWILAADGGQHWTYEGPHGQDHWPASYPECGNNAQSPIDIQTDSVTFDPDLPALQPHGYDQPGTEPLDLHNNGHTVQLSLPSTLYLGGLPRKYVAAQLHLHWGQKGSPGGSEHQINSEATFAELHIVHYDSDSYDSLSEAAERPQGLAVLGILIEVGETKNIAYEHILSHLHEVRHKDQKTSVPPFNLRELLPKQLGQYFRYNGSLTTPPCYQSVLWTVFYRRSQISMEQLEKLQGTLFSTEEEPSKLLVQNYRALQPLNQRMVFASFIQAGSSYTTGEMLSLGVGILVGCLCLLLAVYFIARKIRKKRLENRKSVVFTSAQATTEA

Sequence of Carbonic anhydrase 1 (P00915 whole entry): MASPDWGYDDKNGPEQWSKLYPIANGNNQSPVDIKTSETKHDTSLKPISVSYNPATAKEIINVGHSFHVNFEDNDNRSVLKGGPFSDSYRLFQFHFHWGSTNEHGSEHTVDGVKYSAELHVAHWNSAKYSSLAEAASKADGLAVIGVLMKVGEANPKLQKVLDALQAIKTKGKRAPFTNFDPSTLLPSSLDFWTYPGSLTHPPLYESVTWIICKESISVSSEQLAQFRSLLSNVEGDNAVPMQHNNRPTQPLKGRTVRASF

SMILES	Ki [1] [µM]	Ki [2] [µM]	Ki [3] [µM]	Ki [4] [µM]	Ki [5] [nM]	Ki [6] [nM]	Ki [7] [nM]	Ki [8] [nM]	Ki [9] [nM]	Ki [10] [µM]	Ki [11] [nM]	Ki [12] [nM]
O=C(/C=C/c1ccc(O)cc1)OCc1ccccc1	> 50	> 50	> 50	18.7	970	800	730	720	860	29.4	8920	810
O=C(/C=C/c1ccc(O)c(O)c1)OCCc1ccc(OCCc2ccc(O)cc2)cc1	5.23	> 50	> 50						930		840	
O=C(/C=C/c1ccc(O)c(O)c1)OCCc1cccc(OCCc2cccc(O)c2)c1	9.62	> 50	> 50						970		900	
COc1cc(/C=C/C(=O)OCCc2cccc(O)c2)ccc1O	> 50	> 50	> 50						990		910	
O=C(/C=C/c1ccc(O)cc1)OCCc1ccc(O)cc1	3.87	> 50	> 50						710		13900	
O=C(/C=C/c1ccc(O)cc1)OCCc1cccc(O)c1	3.66	> 50	> 50						820		11600	
COc1cc(/C=C/C(=O)OCCc2ccc(O)cc2)ccc1O	> 50	> 50	> 50						810		930	
COc1cc(/C=C/C(=O)OCc2ccccc2)ccc1O [BENZYL FERULATE]	> 50	> 50	> 50						1030		940	
